Results: paper PMC11306024, “Novel metabolite madeirone and neomarinone extracted from Streptomyces aculeoletus as marine antibiofilm and antifouling agents” (Frontiers in Chemistry, 2024)

Columns and labels:
[1] = test system: Pseudokirchneriella subcapitata; experiment: Algal growth inhibition test (OECD 201); assay type: cell-based
Protocol: (§1) The in vivo evaluation of compounds (1) and (2) for acute toxicity was performed towards marine bacterium Aliivibrio fischeri, and planktonic crustacean Daphnia magna. The chronic ecotoxicity tests were evaluated using algae Pseudokirchneriella subcapitata and Phaeodactylum tricornutum.
(§2) Freshwater and marine algal growth inhibition was assessed using P. subcapitata and P. tricornutum according to OECD Guideline 201 procedures (“Alga, Growth Inhibition Test”), ISO-8692 (“Water quality–Fresh water algal growth inhibition test with unicellular green algae”) and ISO-10253. Briefly, the algae cells were de-immobilized from algal beads using Matrix dissolving medium (Microbiotests), according to the manufacturer’s instructions, and grown in flasks containing algal culturing medium which was prepared following the OECD Guideline 201 and ISO-8692. Flasks with algae were kept for 7 days under light with orbital agitation. When the algae culture had sufficient cells, as verified by the optical density at 670 nm, these were tested at an initial cell density of 1 × 10^6 cells/mL in algal culturing medium. Madeirone (1) and neomarinone (2) were dissolved in DMSO and tested at the concentrations of 100, 50, 25, 12.5, 6.25, 3.13, and 1.56 μg/mL. The algae were cultured in microplates in triplicate and were kept for 4 days under light with orbital agitation. […] Each experiment was performed in triplicate and the results of two independent experiments with <10% SD are presented. Growth inhibition calculations were performed using cell numbers (biomass), as determined by a calibration line. Potassium dichromate (K2Cr2O7) was used as a positive control.

C. marina [2] = experiment: Antibacterial activity (growth inhibition, OD600); assay type: cell-based, Cobetia marina DSM 4741; settings: 24 h; for inhibition at 15.6 µg/mL: 15.60 µg/mL
Protocol: (§3) To assess antimicrofouling activity, we selected five marine bacterial species as models: Marinobacter hydrocarbonoclasticus DSM 8798 (ATCC 49840), C. marina DSM 4741, Phaeobacter inhibens DSM 17,395, Pseusooceanicola batsensis DSM 15,984, and Micrococcus luteus DSM 20030 (ATCC 4698) ([Michael et al., 2016]). These strains, sourced from DSMZ (Leibniz Institute DSMZ—German Collection of Microorganisms and Cell Cultures), were cultured in liquid marine broth (Carl Roth GmbH, Karlsruhe, Germany) with agitation at 180 rpm or on agar-supplemented marine broth. Incubation temperatures were set at 28°C for M. hydrocarbonoclasticus and Cobetia marina, 30°C for P. inhibens and P. batsensis, while M. luteus was maintained at 37°C in Brain Heart Infusion broth (BHI, Becton Dickinson, GmbH, Heidelberg, Germany) under similar agitation conditions.
The antibacterial efficacy of compounds (1) and (2) was assessed in 96-well polystyrene flat-bottom microplates (Nunclon Delta Surface, Thermo Scientific, Roskilde, Denmark) following established procedures ([Bauermeister et al., 2019]). In the initial screening, bacterial overnight cultures were diluted to an optical density (OD600nm) of 0.2 and incubated statically at appropriate temperatures. The cultures were treated with the following final concentrations per well: 31.25, 15.60, 7.81, 3.91, 1.95, and 0.98 μg/mL (2-fold serial dilutions) of the compounds, solubilized in DMSO, or left untreated. After 24 h (M. hydrocarbonoclasticus, C. marina) or 48 h (P. batsensis, P. inhibens, M. luteus) incubation, optical density at 600 nm (OD600) was measured using a Molecular Devices Spectra Max 190. Growth inhibition percentages were calculated relatively to untreated bacterial species, using DMSO as a negative control. CuSO4 (0.16 μg/mL), a recognized antifouling agent, was used as positive control. All assays were conducted in triplicate, and the results represent the mean and standard error of the mean (SEM). Statistical analysis was carried out using GraphPad Prism 8.0.2 (San Diego, CA, United States), employing one-way ANOVA followed by Dunnett’s multiple comparisons test against the negative control.

P. inhibens = experiment: Antibiofilm activity (inhibition of biofilm formation); assay type: cell-based, Phaeobacter inhibens DSM 17395; settings: for Biofilm inhibition, up to (highest over tested concentrations) P. inhibens: 0.98-31.25 µg/mL tested; for inhibition at 15.6 µg/mL: 15.60 µg/mL
Protocol: as §3
(§4) The antibiofilm potential of compounds (1) and (2) against the five marine bacterial species was investigated in 96-well polystyrene flat-bottom microplates (Nunclon Delta Surface, Thermo Scientific, Roskilde, Denmark), as described previously ([Bauermeister et al., 2019]; [Pereira et al., 2020]). In the initial screening, bacterial overnight cultures were diluted to an OD600 of 0.2 and incubated statically at appropriate temperatures. The cultures were tested at 31.25, 15.60, 7.81, 3.91, 1.95, 0.98 μg/mL concentrations (2-fold serial dilutions) of compounds (1) and (2), solubilized in DMSO, or left untreated. After 24 h (M. hydrocarbonoclasticus, C. marina) or 48 h (P. batsensis, P. inhibens, M. luteus) incubation, OD600 was measured. The planktonic cells and media were discarded, and the wells were washed twice with deionized water. Biofilms were fixed, stained, and quantified by measuring the OD600 after solubilization with acetic acid. Biofilm inhibition percentages were calculated relative to untreated bacterial species, using DMSO as a negative control and CuSO4 (0.16 μg/mL), as a positive control. All assays were performed in triplicate, and the results represent the mean and standard error of the mean (SEM). Statistical analysis was conducted using GraphPad Prism 8.0.2, employing one-way ANOVA followed by Dunnett’s multiple comparisons test against the negative control.

[3] = test system: Phaeodactylum tricornutum; experiment: Algal growth inhibition test (OECD 201, ISO-10253); assay type: cell-based
Protocol: as §1, §2

C. marina [4] = experiment: Antibiofilm activity (inhibition of biofilm formation); assay type: cell-based, Cobetia marina DSM 4741; settings: for Biofilm inhibition, up to (highest over tested concentrations) C. marina: 0.98-31.25 µg/mL tested; for inhibition at 0.98 µg/mL / inhibition at 1.95 µg/mL / inhibition at 3.91 µg/mL / inhibition at 7.81 µg/mL / inhibition at 15.6 µg/mL / inhibition at 31.25 µg/mL: Cobetia marina, 24 h; for inhibition at 15.6 µg/mL: 15.60 µg/mL
Protocol: as §3, §4

M. hydrocarbonoclasticus = experiment: as above; assay type: cell-based, Marinobacter hydrocarbonoclasticus DSM 8798; settings: for Biofilm inhibition, up to (highest over tested concentrations) M. hydrocarbonoclasticus: 0.98-31.25 µg/mL tested; for inhibition at 15.6 µg/mL: 15.60 µg/mL
Protocol: as §3, §4

M. luteus = experiment: as above; assay type: cell-based, Micrococcus luteus DSM 20030
Protocol: as §3, §4

Row | Compound | Inhibition (%) P. subcapitata (growth) ([1]; 50 µg/mL) [%] | Inhibition (%) P. subcapitata (growth) ([1]; 100 µg/mL) [%] | inhibition at 7.81 µg/mL (C. marina [2]; Cobetia marina) [%] | inhibition at 15.6 µg/mL (C. marina [2]; Cobetia marina) [%] | inhibition at 31.25 µg/mL (C. marina [2]; Cobetia marina) [%] | Biofilm inhibition (%) P. inhibens (P. inhibens; 0.98 µg/mL, 48 h) | Biofilm inhibition (%) P. inhibens (P. inhibens; 1.95 µg/mL, 48 h) | Biofilm inhibition, up to (highest over tested concentrations) P. inhibens (P. inhibens) | inhibition at 7.81 µg/mL (P. inhibens; Phaeobacter inhibens, 48 h) [%] | inhibition at 15.6 µg/mL (P. inhibens; Phaeobacter inhibens, 48 h) [%] | inhibition at 31.25 µg/mL (P. inhibens; Phaeobacter inhibens, 48 h) [%] | Inhibition (%) P. tricornutum (growth) ([3]; 25 µg/mL) [%] | Inhibition (%) P. tricornutum (growth) ([3]; 50 µg/mL) [%] | Inhibition (%) P. tricornutum (growth) ([3]; 100 µg/mL) [%] | Biofilm inhibition, up to (highest over tested concentrations) C. marina (C. marina [4]) | inhibition at 0.98 µg/mL (C. marina [4]) [%] | inhibition at 1.95 µg/mL (C. marina [4]) [%] | inhibition at 3.91 µg/mL (C. marina [4]) [%] | inhibition at 7.81 µg/mL (C. marina [4]) [%] | inhibition at 15.6 µg/mL (C. marina [4]) [%] | other results
1 | CC1=CCC[C@@H](C)[C@]1(C)CC[C@@]1(C)c2c(O)cc3c(c2O[C@@H]1C)C(=O)C=C(CO)C3=O (relative stereo) [compound 1, madeirone] | 27.3 | 52.8 | 10 ± 2.1 | 7.7 ± 4 | 12.7 ± 2.7 | N.I. | N.I. | up to 66% | 33.9 ± 1.3 | 53 ± 1 | 66.7 ± 0.3 | 45.7 | 58.0 | 86.9 | up to 40% | 28.6 ± 23.2 | 31.6 ± 15.3 | 36.3 ± 6.4 | 39.2 ± 5.4 | 41.7 ± 10 | Inhibition (%) P. subcapitata (growth) ([1]; 25 µg/mL): 9.1%; Growth inhibition (%) C. marina (C. marina [2]; 0.98 µg/mL): N.I.; Growth inhibition (%) C. marina (C. marina [2]; 1.95 µg/mL): N.I.; Growth inhibition (%) C. marina (C. marina [2]; 3.91 µg/mL): N.I.; inhibition at 3.91 µg/mL (P. inhibens; Phaeobacter inhibens, 3.91 µg/mL, 48 h): 10.2 ± 3.7%; inhibition at 31.25 µg/mL (C. marina [4]): 31 ± 9.6%; Biofilm inhibition (%) M. hydrocarbonoclasticus (M. hydrocarbonoclasticus; 0.98 µg/mL, 24 h): N.I.; Biofilm inhibition (%) M. hydrocarbonoclasticus (M. hydrocarbonoclasticus; 1.95 µg/mL, 24 h): N.I.; Biofilm inhibition (%) M. hydrocarbonoclasticus (M. hydrocarbonoclasticus; 3.91 µg/mL, 24 h): N.I.; Biofilm inhibition, up to (highest over tested concentrations) M. hydrocarbonoclasticus (M. hydrocarbonoclasticus): up to 60%; inhibition at 7.81 µg/mL (M. hydrocarbonoclasticus; Marinobacter nauticus, 24 h): 14.2 ± 3.6%; inhibition at 15.6 µg/mL (M. hydrocarbonoclasticus; Marinobacter nauticus, 24 h): 33.9 ± 2.1%; inhibition at 31.25 µg/mL (M. hydrocarbonoclasticus; Marinobacter nauticus, 24 h): 60.1 ± 0.5%; Biofilm inhibition (%) M. luteus (M. luteus; 0.98 µg/mL, 48 h): N.I.; Biofilm inhibition (%) M. luteus (M. luteus; 1.95 µg/mL, 48 h): N.I.; Biofilm inhibition (%) M. luteus (M. luteus; 3.91 µg/mL, 48 h): N.I.; Biofilm inhibition (%) M. luteus (M. luteus; 7.81 µg/mL, 48 h): N.I.; Biofilm inhibition (%) M. luteus (M. luteus; 15.60 µg/mL, 48 h): N.I.; inhibition at 31.25 µg/mL (M. luteus; Micrococcus luteus, 48 h): 35.3 ± 0.2%
2 | CC1=CCC[C@@H](C)[C@]1(C)CC[C@@]1(C)c2c(O)cc3c(c2O[C@@H]1C)C(=O)C(C)=C(O)C3=O [compound 2, neomarinone] | 9.7 | 26.2 | 9.2 ± 2.1 | 7.2 ± 2.9 | 1.1 ± 2 | N.I. | N.I. | up to 41% | 11.6 ± 1.8 | 30 ± 0.6 | 41.3 ± 0.9 | 38.5 | 40.8 | 77.7 | ≤ 46% | 26.5 ± 3.8 | 24.5 ± 3 | 26.9 ± 3.3 | 34.4 ± 7.4 | 42.6 ± 6.3 | inhibition at 0.98 µg/mL (C. marina [2]; Cobetia marina, 0.98 µg/mL): 10.7 ± 2.2%; inhibition at 1.95 µg/mL (C. marina [2]; Cobetia marina, 1.95 µg/mL): 10.8 ± 3.1%; inhibition at 3.91 µg/mL (C. marina [2]; Cobetia marina, 3.91 µg/mL): 6.5 ± 1.2%; Biofilm inhibition (%) P. inhibens (P. inhibens; 3.91 µg/mL, 48 h): N.I.; Inhibition (%) P. tricornutum (growth) ([3]; 12.5 µg/mL): 26.5%; inhibition at 31.25 µg/mL (C. marina [4]): 45.8 ± 2.9%; Biofilm inhibition, up to (highest over tested concentrations) M. hydrocarbonoclasticus (M. hydrocarbonoclasticus): ≤ 56%; inhibition at 0.98 µg/mL (M. hydrocarbonoclasticus; Marinobacter nauticus, 0.98 µg/mL, 24 h): 49.2 ± 6.2%; inhibition at 1.95 µg/mL (M. hydrocarbonoclasticus; Marinobacter nauticus, 1.95 µg/mL, 24 h): 58.1 ± 1.6%; inhibition at 3.91 µg/mL (M. hydrocarbonoclasticus; Marinobacter nauticus, 3.91 µg/mL, 24 h): 54.5 ± 3.6%; inhibition at 7.81 µg/mL (M. hydrocarbonoclasticus; Marinobacter nauticus, 24 h): 54.4 ± 1.8%; inhibition at 15.6 µg/mL (M. hydrocarbonoclasticus; Marinobacter nauticus, 24 h): 56.7 ± 1.5%; inhibition at 31.25 µg/mL (M. hydrocarbonoclasticus; Marinobacter nauticus, 24 h): 29 ± 10.1%; Biofilm inhibition (%) M. luteus (M. luteus; 0.98 µg/mL, 48 h): N.I.; Biofilm inhibition (%) M. luteus (M. luteus; 1.95 µg/mL, 48 h): N.I.; Biofilm inhibition, up to (highest over tested concentrations) M. luteus (M. luteus; 0.98-31.25 µg/mL tested): up to 40%; inhibition at 3.91 µg/mL (M. luteus; Micrococcus luteus, 3.91 µg/mL, 48 h): 7.8 ± 16.9%; inhibition at 7.81 µg/mL (M. luteus; Micrococcus luteus, 7.81 µg/mL, 48 h): 29.9 ± 12.4%; inhibition at 15.6 µg/mL (M. luteus; Micrococcus luteus, 15.60 µg/mL, 48 h): 41 ± 8.2%; inhibition at 31.25 µg/mL (M. luteus; Micrococcus luteus, 48 h): 33.3 ± 7.3%
